Patent US20070203073A1 (priority 2005, published 2007)

System: SARS-CoV S protein
Assay type: cell-based

Structure (SMILES): CC(=O)N[C@@H](CC(C)C)C(=O)N[C@@H](CC(C)C)C(=O)N[C@H](C=O)CCCNC(=N)N [leupeptin]
- effect on cell-cell fusion: reduced
